Data as given in patent publication US10604480B2, “(Thio, oxo, and seleno) semicarbazone derivatives and their use for treating cancer” (RUTGERS, THE STATE UNIVERSITY OF NEW JERSEY, priority 2015, dated 2020).

Experiments:
HEK293 cells = assay: Intracellular [Zn2+]free imaging with FluoZin-3-AM, HEK293 cells; type: cell-based; conditions: for increase of intracellular [Zn2+]free (FZ3-AM fluorescence): HEK293 (non-cancer, p53-WT), complete media, confocal microscopy
Description: (§1) To minimize the potential for Zn^2+ contamination and contributions from poorly defined elements in complete media (e.g. FBS), cells were treated and imaged in Ca^2+ and Mg^2+-free Earle's Balanced Salt Solution supplemented with 10 mM HEPES pH 7.4 (EBSS/H (−)Ca/Mg). Excess ZnCl2 with the Zn^2+ ionophore pyrithione (PYR) was used as a positive control. Excess membrane-permeable Zn^2+ chelator N,N,N′,N′-tetrakis(2-pyridylmethyl)ethane-1,2-diamine (TPEN) was used as a negative control.
To normalize for differential dye loading, cells were then sequentially treated with excess PYR/ZnCl2, imaged, treated with TPEN, and imaged again. PYR/ZnCl2 and TPEN served to saturate and apoize the intracellular FZ3, respectively.
TOV112D or HEK293 cells (40,000 cells/well) were plated on either 8-well BD Falcon chambered culture slides (Corning Life Sciences) or 8-chambered #1.5 Nunc Lab-Tek II chambered coverglasses (Thermo Scientific) treated with poly-L-lysine. After 48 h, cells were washed 2×5 m in serum-free media and incubated with 1 μM FZ3-AM for 40 m at 37° C. Cells were then washed 2×5 m in either EBSS/H (−)Ca/Mg or phenol-red free DMEM+10% FBS containing the indicated treatments for 20 m before imaging. For nuclear colocalization, 1 μg/mL Hoechst 33342 was also included. Cells were imaged using a Zeiss LSM50 META NLO confocal microscope equipped with 37° C. environmental control chamber. FZ3 and Hoechst 33342 were excited at 488 nm (argon laser) and 790 nm (Chameleon Ti:sapphire laser), respectively. To determine the kinetics of fluorescence change, each background-subtracted image in the time-lapse series was integrated in ImageJ and normalized to the integrated fluorescence of the first frame after treatment. For quantification of intracellular [Zn^2+]free, each cell was analyzed in the treated, 50 μM PYR/ZnCl2 (1:1), and 100 μM TPEN images by taking the mean fluorescence of an ROI inside the cell subtracted by an ROI immediately outside the cell measured in ImageJ. The [Zn^2+]free for each cell was then calculated by Eqn 2:
[formula] […] To minimize the effects of outliers the lowest and highest 5% of cells in each series were rejected, and the remaining values averaged to give the value from that experiment. The number of cells analyzed in each trial ranged from 54-163. For nuclear colocalization, treated, PYR/ZnCl2, and TPEN treated images costained with Hoechst 33342 were aligned and each pixel subjected to Eqn. 2 in MATLAB (MathWorks).

[1] = Liposome import assay (RZ-3 fluorescence); conditions: for Zn2+ shuttling into liposomes: external [Zn2+]free 10 μM
Description: However, in complete media containing 10% fetal bovine serum (FBS), Zn^2+-binding proteins from the serum (e.g. albumin) necessarily compete for Zn^2+ with any putative MC, making the effective [Zn^2+]free much lower than [Zn^2+]total.
(§2) DOPC-liposomes were prepared by film rehydration and extrusion followed by gel filtration and diluted to an OD600=0.06 in buffer. The size distribution of the liposomes was determined by dynamic light scattering (DLS) using a Malvern Zetasizer Nano ZS. Fluorescence measurements were taken on a Horiba Fluoromax-4 spectrofluorimeter in a 5×5 mm quartz cuvette with λex/λem=550/572 nm for RZ-3 and 490/515 nm for calcein. Initial Zn^2+ import/export was quantified by fitting the first 10-30 s of data after each treatment to a line and converted to units of flux using the following Eqn 1:
[formula] where Ji is the initial flux, ΔF/Δt is the slope of the fit line, Fmax is RZ-3 fluorescence in the presence of saturating Zn^2+ and 1% TritonX-100, Fmin is RZ-3 fluorescence in the presence of excess EDTA and 1% TritonX-100, [RZ3] is the concentration of encapsulated RZ-3, and SA/Vol is the surface area to volume ratio calculated assuming hollow spheres of the mean diameter determined by DLS. Intracellular [Zn^2+]free Imaging

TOV112D cells = assay: Intracellular [Zn2+]free imaging with FluoZin-3-AM, TOV112D cells; type: cell-based; conditions: ZMC1 alone without ZnCl2, EBSS/H (−)Ca/Mg
Description: as §1
To normalize for differential dye loading, cells were then sequentially treated with excess PYR/ZnCl2, imaged, treated with TPEN, and imaged again. […]
TOV112D or HEK293 cells (40,000 cells/well) were plated on either 8-well BD Falcon chambered culture slides (Corning Life Sciences) or 8-chambered #1.5 Nunc Lab-Tek II chambered coverglasses (Thermo Scientific) treated with poly-L-lysine. […] To determine the kinetics of fluorescence change, each background-subtracted image in the time-lapse series was integrated in ImageJ and normalized to the integrated fluorescence of the first frame after treatment. For quantification of intracellular [Zn^2+]free, each cell was analyzed in the treated, 50 μM PYR/ZnCl2 (1:1), and 100 μM TPEN images by taking the mean fluorescence of an ROI inside the cell subtracted by an ROI immediately outside the cell measured in ImageJ. […]

[2] = Liposomal leakage assay (calcein) and liposome size distribution
Description: To ensure that the fluorescence results were due to Zn^2+ transport and not to non-specific disruption of liposomal membranes, a liposomal leakage assay was performed using the self-quenching fluorophore calcein. When calcein is encapsulated at concentrations above 4 mM its fluorescence is decreased via self-quenching. Leakage is detected by a fluorescence increase as the dye dilutes and its fluorescence dequenches. […] Disruption of liposomes can also be detected by alteration of their size distribution.
as §2, with “1: […]” for “1:”

SMILES | increase of intracellular [Zn2+]free (FZ3-AM fluorescence) (HEK293 cells) | ability to cross liposomal or cellular membranes [1] | Zn2+ shuttling into liposomes [1] | increase in intracellular [Zn2+]free, ZMC1 alone (TOV112D cells) | increase in intracellular [Zn2+]free, ZMC1 alone (HEK293 cells; HEK293, ZMC1 alone without ZnCl2, EBSS/H (−)Ca/Mg) | RZ-3 fluorescence after reversing [Zn2+]free gradient with excess external EDTA ([1]; ZMC1 added after EDTA, export of Zn2+ from liposomes) | calcein fluorescence increase (liposome leakage) ([2]; highest concentrations of ZMC1 and ZnCl2) | size distribution of liposomes ([2]; highest concentrations of ZnCl2 and ZMC1)
O=C(O)CN(CC(=O)O)CC(=O)O [NTA] | did not | cannot cross either liposomal or cellular membranes | did not |  |  |  |  | 
C/C(=N\NC(=O)N1CCC1)c1ccccn1 [Example A6] | did not |  | shuttled Zn^2+ into the liposomes |  |  |  |  | 
C/C(=N\NC(=S)N1CCC1)c1ccccn1 [ZMC1] | increased | can cross biological membranes both as free drug and drug-Zn^2+ complex |  | neither cell type showed an increase | neither cell type showed an increase | time dependent decrease | a significant fluorescence increase was not detected | identical to that of untreated liposomes
